Where a name gives a salt, the structure may show the parent alone.
What was measured:
human TLR8 = target: T1, human TLR8 (Homo sapiens, UniProt Q9NR97); assay: HEK-Blue hTLR8 reporter cell assay (SEAP, NF-kB/AP-1) for stimulation of human TLR8; type: cell-based; details: HEK-Blue hTLR8 cells; for EC50: 24 h incubation, SEAP readout, read-out: TLR8_EC50; for activation at 20 µM: 24 h, at 20000 nM
T1 construct: host or cells: HEK293 (HEK-Blue hTLR8)
T1 sequence (Q9NR97 27-1041): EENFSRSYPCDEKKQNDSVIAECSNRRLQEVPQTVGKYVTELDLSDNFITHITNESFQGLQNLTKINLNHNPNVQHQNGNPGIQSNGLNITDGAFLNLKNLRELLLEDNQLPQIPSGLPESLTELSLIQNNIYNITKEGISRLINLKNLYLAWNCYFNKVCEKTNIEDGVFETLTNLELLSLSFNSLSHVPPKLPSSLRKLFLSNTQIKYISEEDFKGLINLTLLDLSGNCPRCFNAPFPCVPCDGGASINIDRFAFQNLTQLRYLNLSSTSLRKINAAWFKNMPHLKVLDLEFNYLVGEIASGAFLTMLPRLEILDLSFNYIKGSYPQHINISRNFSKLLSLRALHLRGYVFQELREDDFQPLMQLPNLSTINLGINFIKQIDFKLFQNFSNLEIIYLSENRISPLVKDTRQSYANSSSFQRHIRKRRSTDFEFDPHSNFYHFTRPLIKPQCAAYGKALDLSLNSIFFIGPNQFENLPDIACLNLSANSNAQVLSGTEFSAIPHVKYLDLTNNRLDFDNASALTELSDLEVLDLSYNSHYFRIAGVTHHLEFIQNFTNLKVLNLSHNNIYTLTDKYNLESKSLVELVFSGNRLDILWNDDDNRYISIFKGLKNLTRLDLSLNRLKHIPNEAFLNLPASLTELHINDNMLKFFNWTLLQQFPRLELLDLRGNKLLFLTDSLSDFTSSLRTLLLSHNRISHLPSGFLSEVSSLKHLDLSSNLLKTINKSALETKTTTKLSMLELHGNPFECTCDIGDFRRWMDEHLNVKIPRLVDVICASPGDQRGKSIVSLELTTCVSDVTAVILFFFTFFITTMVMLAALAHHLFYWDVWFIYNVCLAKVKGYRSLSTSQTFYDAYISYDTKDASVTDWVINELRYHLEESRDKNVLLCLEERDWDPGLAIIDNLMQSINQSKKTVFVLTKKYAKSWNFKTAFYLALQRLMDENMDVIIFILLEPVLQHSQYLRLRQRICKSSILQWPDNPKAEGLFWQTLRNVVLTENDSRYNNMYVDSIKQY
Protocol: (§1) The below tests, involving measuring the in vitro activity of some compounds of the disclosure on TLR7 and TLR8, were carried out using the HEK-Blue™ cells as reporter.
(§2) In Vitro Assay for Studying the Stimulation of Human TLR7 and TLR8:
HEK-Blue™ hTLR7 Cells (#hkb-htlr7) and HEK-Blue™ hTLR8 Cells (#hkb-htlr8) from InvivoGen were used according to the manufacturer's instructions. These Reporter HEK293 cells were obtained by co-transfection of the hTLR7 or TLR8 gene and an optimized Secreted Embryonic Alkaline Phosphatase (SEAP) reporter gene which is placed under the control of the IFN-β minimal promoter fused to five NF-κB and AP-1-binding sites. Stimulation with a TLR7/8 ligand activates NF-kB and AP-1 which induce the production of SEAP. The cells are seeded in 96-well plate at 3.10E4 cells/well and incubated 18 to 24 h at 37° C., 5% CO2 before adding the compounds to evaluate. […] Next, 20 μL of the supernatant is harvested and incubated with 200 μL of QUANTI-Blue™ Solution.

human TLR7 = target: T2, human TLR7 (Homo sapiens, UniProt Q9NYK1); assay: HEK-Blue hTLR7 reporter cell assay (SEAP, NF-kB/AP-1) for stimulation of human TLR7; type: cell-based; details: HEK-Blue hTLR7 cells; for EC50: 24 h incubation, SEAP readout, read-out: TLR7_EC50
T2 construct: host or cells: HEK293 (HEK-Blue hTLR7)
T2 sequence (Q9NYK1 27-1049): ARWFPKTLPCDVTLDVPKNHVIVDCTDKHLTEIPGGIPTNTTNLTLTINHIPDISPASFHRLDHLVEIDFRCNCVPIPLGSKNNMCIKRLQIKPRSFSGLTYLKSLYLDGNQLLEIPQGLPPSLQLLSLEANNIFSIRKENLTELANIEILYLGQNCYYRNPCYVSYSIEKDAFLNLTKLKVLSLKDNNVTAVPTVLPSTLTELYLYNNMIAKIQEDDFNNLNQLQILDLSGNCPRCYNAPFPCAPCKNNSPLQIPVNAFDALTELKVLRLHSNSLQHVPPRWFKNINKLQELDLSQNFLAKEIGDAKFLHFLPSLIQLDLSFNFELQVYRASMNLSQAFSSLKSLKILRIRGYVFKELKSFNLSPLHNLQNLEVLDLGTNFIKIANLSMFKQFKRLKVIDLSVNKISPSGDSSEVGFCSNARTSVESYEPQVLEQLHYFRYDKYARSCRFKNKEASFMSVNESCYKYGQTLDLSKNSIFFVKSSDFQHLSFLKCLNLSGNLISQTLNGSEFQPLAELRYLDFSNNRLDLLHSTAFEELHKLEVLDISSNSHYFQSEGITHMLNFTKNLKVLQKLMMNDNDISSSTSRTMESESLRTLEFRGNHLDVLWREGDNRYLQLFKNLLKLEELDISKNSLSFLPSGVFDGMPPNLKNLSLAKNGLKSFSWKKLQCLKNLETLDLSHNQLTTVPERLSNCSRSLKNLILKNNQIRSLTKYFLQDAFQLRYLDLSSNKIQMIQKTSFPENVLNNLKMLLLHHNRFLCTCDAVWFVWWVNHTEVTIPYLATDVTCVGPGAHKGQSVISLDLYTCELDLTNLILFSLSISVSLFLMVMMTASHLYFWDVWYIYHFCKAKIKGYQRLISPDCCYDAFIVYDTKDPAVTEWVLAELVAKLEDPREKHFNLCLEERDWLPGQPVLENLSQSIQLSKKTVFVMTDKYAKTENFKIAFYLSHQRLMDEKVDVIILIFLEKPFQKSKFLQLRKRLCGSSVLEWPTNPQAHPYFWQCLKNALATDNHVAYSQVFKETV
Protocol: as §1
The activity described below, with respect to TLR7, TLR8, IFN-α2a, IL-6, IL29 and TNF-α, is given by the half maximal effective concentration (EC50), which corresponds to the concentration required to obtain a 50% of the activation. The lower the EC50, the less the concentration of the compound is required to produce 50% of maximum activation and the higher the potency.
as §2
HEK-Blue™ hTLR7 Cells (#hkb-htlr7) and HEK-Blue™ hTLR8 Cells (#hkb-htlr8) from InvivoGen were used according to the manufacturer's instructions. These Reporter HEK293 cells were obtained by co-transfection of the hTLR7 or TLR8 gene and an optimized Secreted Embryonic Alkaline Phosphatase (SEAP) reporter gene which is placed under the control of the IFN-β minimal promoter fused to five NF-κB and AP-1-binding sites. Stimulation with a TLR7/8 ligand activates NF-kB and AP-1 which induce the production of SEAP. The cells are seeded in 96-well plate at 3.10E4 cells/well and incubated 18 to 24 h at 37° C., 5% CO2 before adding the compounds to evaluate. The cells are subsequently incubated with 3-fold serial dilutions of each of the compounds (0.01 to 20 μM) for 24 hours at 37° C., 5% CO2. Next, 20 μL of the supernatant is harvested and incubated with 200 μL of QUANTI-Blue™ Solution.

Row | SMILES | EC50 (human TLR8) [nM] | EC50 (human TLR7) [nM] | activation at 20 µM (human TLR8) [%] | activation at 20 µM (human TLR7; 24 h, at 20000 nM) [%]
1 | CCOCc1nc2c(N)nnc(OC(C)C)c2n1Cc1ccc(CN)cc1 [Compound 159, 1-(4-(aminomethyl)benzyl)-2-(ethoxymethyl)-7-isopropoxy-1H-imidazo[4,5-d]pyridazin-4-amine] | > 20000 | 247 | – | –
2 | CCCCc1nc2c(N)nnc(CCC(C)C)c2n1C[C@H]1CC[C@H](N)CC1 [Compound 140, 1-(((1R,4R)-4-aminocyclohexyl)methyl)-2-butyl-7-isopentyl-1H-imidazo[4,5-d]pyridazin-4-amine] | > 20000 | 1310 | – | –
3 | CCCCc1nc2c(N)nnc(OC(C)C)c2n1CC1CCNCC1 [Compound 165, 2-butyl-7-isopropoxy-1-(piperidin-4-ylmethyl)-1H-imidazo[4,5-d]pyridazin-4-amine] | > 20000 | 1570 | – | –
4 | CCCCc1nc2c(N)nnc(OC(C)C)c2n1Cc1cccnc1 [Compound 74, 2-butyl-7-isopropoxy-1-(pyridin-3-ylmethyl)-1H-imidazo[4,5-d]pyridazin-4-amine] | 17900 | 586 | – | –
5 | CCCCc1nc2c(N)nnc(O[C@H]3CCOC3)c2n1Cc1ccc(OC)cc1 [Compound 54, (S)-2-butyl-1-(4-methoxybenzyl)-7-((tetrahydrofuran-3-yl)oxy)-1H-imidazo[4,5-d]pyridazin-4-amine] | > 20000 | 610 | – | –
6 | CCCCc1nc2c(N)nnc(-c3cccs3)c2n1Cc1ccc(OC)cc1 [Compound 63, 2-butyl-1-(4-methoxybenzyl)-7-(thiophen-2-yl)-1H-imidazo[4,5-d]pyridazin-4-amine] | > 20000 | 1180 | – | –
7 | CCCCCCC(=O)NCc1ccc(Cn2c(CCCC)nc3c(N)nnc(OC(C)C)c32)cc1 [Compound 84, N-(4-((4-amino-2-butyl-7-isopropoxy-1H-imidazo[4,5-d]pyridazin-1-yl)methyl)benzyl)heptanamide] | 1810 | 263 | – | –
8 | CCNCc1nc2c(N)nnc(OC(C)C)c2n1Cc1ccc(CN)cc1 [Compound 164, 3-[[4-(aminomethyl)phenyl]methyl]-2-(ethylaminomethyl)-4-isopropoxy-imidazo[4,5-d]pyridazin-7-amine] | – | – | 10.8 | 4.8
9 | CCCCc1nc2c(N)nnc(NCCCc3ccco3)c2n1Cc1ccc(OC)cc1 [Compound 94, 2-butyl-N7-(3-(furan-2-yl)propyl)-1-(4-methoxybenzyl)-1H-imidazo[4,5-d]pyridazine-4,7-diamine] | – | 226 | 11 | –
10 | CCCCc1nc2c(N)nnc(OC3CCOC3)c2n1Cc1ccc(OC)cc1 (stereo not drawn) [Compound 56, 2-butyl-1-(4-methoxybenzyl)-7-((tetrahydrofuran-3-yl)oxy)-1H-imidazo[4,5-d]pyridazin-4-amine] | > 20000 | 231 | – | –
11 | CCCCc1nc2c(N)nnc(OC(C)C)c2n1CC(C)(C)O [Compound 24, 1-(4-amino-2-butyl-7-isopropoxy-1H-imidazo[4,5-d]pyridazin-1-yl)-2-methylpropan-2-ol] | 2640 | 234 | – | –

Next, values leading:

Row | EC50 (human TLR8) [nM] | EC50 (human TLR7) [nM] | activation at 20 µM (human TLR8) [%] | activation at 20 µM (human TLR7; 24 h, at 20000 nM) [%] | SMILES
12 | 303 | 13 | – | – | CCCCc1nc2c(N)nnc(OC(C)C)c2n1Cc1ccc(CNC2CCOCC2)cc1 [Compound 82, 2-butyl-7-isopropoxy-1-(4-(((tetrahydro-2H-pyran-4-yl)amino)methyl)benzyl)-1H-imidazo[4,5-d]pyridazin-4-amine hydrochloride]
13 | 1820 | 34 | – | – | CCCCc1nc2c(N)nnc(OC(C)C)c2n1Cc1ccc(CN(C)C)cc1 [Compound 116, 2-butyl-1-(4-((dimethylamino)methyl)benzyl)-7-isopropoxy-1H-imidazo[4,5-d]pyridazin-4-amine]
14 | > 20000 | 161 | – | – | CCCCC(=O)NCc1ccc(Cn2c(CCCC)nc3c(N)nnc(OC(C)C)c32)cc1 [Compound 30, N-(4-((4-amino-2-butyl-7-isopropoxy-1H-imidazo[4,5-d]pyridazin-1-yl)methyl)benzyl)pentanamide]
15 | 5 | 75 | – | – | CCCCc1nc2c(N)nnc(OC(C)C)c2n1CC(C)(CO)CO [Compound 156, 2-[(7-amino-2-butyl-4-isopropoxy-imidazo[4,5-d]pyridazin-3-yl)methyl]-2-methyl-propane-1,3-diol; hydrochloride]
16 | > 20000 | 191 | – | – | CCCCc1nc2c(N)nnc(OC(C)C)c2n1CCCCCCN [Compound 146, 3-(6-aminohexyl)-2-butyl-4-isopropoxy-imidazo[4,5-d]pyridazin-7-amine dihydrochloride salt]
17 | 2130 | 143 | – | – | CCCCc1nc2c(N)nnc(OC(C)C)c2n1Cc1ccc(CNCCC(=O)OC(C)(C)C)cc1 [Compound 119, tert-butyl 3-((4-((4-amino-2-butyl-7-isopropoxy-1H-imidazo[4,5-d]pyridazin-1-yl)methyl)benzyl)amino)propanoate]
18 | 401 | 17 | – | – | CCCCc1nc2c(N)nnc(OC(C)C)c2n1Cc1ccc(CNC2(C)CCC2)cc1 [Compound 39, 2-butyl-7-isopropoxy-1-(4-(((1-methylcyclobutyl)amino)methyl)benzyl)-1H-imidazo[4,5-d]pyridazin-4-amine]

Reference: patent US12583861B2, “Derivatives of imidazo[4,5-d]pyridazine, their preparation and their therapeutic application” (SANOFI, priority 2021, dated 2026)
